Columns and labels:
HeLa = test: Cytotoxicity against human HeLa cells after 72 hrs by MTT assay; type: functional, cell-based
A549 = test: Cytotoxicity against human A549 cells after 72 hrs by MTT assay; type: functional, cell-based; conditions: A549, 72 h
HepG2 = test: Cytotoxicity against human HepG2 cells after 72 hrs by MTT assay; type: functional, cell-based; conditions: HepG2, 72 h
HCT-116 = test: Cytotoxicity against human HCT116 cells after 72 hrs by MTT assay; type: functional, cell-based; conditions: HCT-116, 72 h
[1] = Cytotoxicity against mouse 3T3L1 cells assessed as viability at 100 ug/mL after 72 hrs by MTT assay; type: cell-based; conditions: 3T3-L1 cells, read-out: Activity

| SMILES | IC50 (HeLa) | IC50 (A549) | IC50 (HepG2) | IC50 (HCT-116) | viability at 72 h, 100 ug/mL [1] |
| --- | --- | --- | --- | --- | --- |
| CCCCCCCCCCCCO[C@@H]1O[C@H](CO)[C@H](O)[C@H](O)[C@H]1O | 151 µM | 77.2 µM | 162 µM | 97.8 µM |  |
| CCCCCCCCCCCCCCCO[C@H]1O[C@H](CO)[C@H](O)[C@H](O)[C@H]1O | 61.3 µM | 46.8 µM | > 240 µM | 52.5 µM |  |
| CCCCCCCCCCCCO[C@H]1O[C@H](CO)[C@H](O)[C@H](O)[C@H]1O | 146 µM | 56.7 µM | 138 µM | 88.8 µM |  |
| CCCCCCCCCCO[C@@H]1O[C@H](CO)[C@H](O)[C@H](O)[C@H]1O | > 240 µM | 157 µM | > 240 µM | > 240 µM |  |
| CCCCCCCCCCCCCCCCOC1O[C@H](CO)[C@H](O)[C@H](O)[C@H]1O (mixture of isomers) | 45 µM | 25.3 µM | > 240 µM | 32.2 µM | 94.3% |
| CCCCCCCCCCCCCOC1O[C@H](CO)[C@H](O)[C@H](O)[C@H]1O (mixture of isomers) | 57.1 µM | 39.3 µM | 54.3 µM | 38.7 µM |  |
| CCCCCCCCCCCCCO[C@@H]1O[C@H](CO)[C@H](O)[C@H](O)[C@H]1O | 148 µM | 62 µM | 142 µM | 85.3 µM |  |
| CCCCCCCCCCCOC1O[C@H](CO)[C@H](O)[C@H](O)[C@H]1O (mixture of isomers) | 60.5 µM | 45.6 µM | 68.2 µM | 50.9 µM |  |
| CCCCCCCCCCCCCCCCO[C@H]1O[C@H](CO)[C@H](O)[C@H](O)[C@H]1O | 54.6 µM | 38.5 µM | > 240 µM | 42.7 µM |  |
| CCCCCCCCCCCO[C@@H]1O[C@H](CO)[C@H](O)[C@H](O)[C@H]1O | 202 µM | 118 µM | 200 µM | 155 µM |  |
| CCCCCCCCCCCCCCO[C@H]1O[C@H](CO)[C@H](O)[C@H](O)[C@H]1O | 67 µM | 49.6 µM | 68.1 µM | 72.8 µM |  |
| CCCCCCCCCCOC1O[C@H](CO)[C@H](O)[C@H](O)[C@H]1O (mixture of isomers) | 180 µM | 107 µM | 192 µM | 140 µM |  |
| CCCCCCCCCCCO[C@H]1O[C@H](CO)[C@H](O)[C@H](O)[C@H]1O | 196 µM | 102 µM | 151 µM | 152 µM |  |
| CCCCCCCCCCO[C@H]1O[C@H](CO)[C@H](O)[C@H](O)[C@H]1O | > 240 µM | 144 µM | > 240 µM | > 240 µM |  |
| CCCCCCCCCCCCCO[C@H]1O[C@H](CO)[C@H](O)[C@H](O)[C@H]1O | 73.3 µM | 51.8 µM | 89.9 µM | 75.1 µM |  |
| CCCCCCCCCCCCCCCCO[C@@H]1O[C@H](CO)[C@H](O)[C@H](O)[C@H]1O | > 240 µM | 151 µM | > 240 µM | > 240 µM |  |
| CCCCCCCCCCCCOC1O[C@H](CO)[C@H](O)[C@H](O)[C@H]1O (mixture of isomers) | 58.6 µM | 40.8 µM | 63.4 µM | 47.7 µM |  |

Reference: ChEMBL document CHEMBL1955736, “The anomeric mixture of some O-galactolipid derivatives is more toxic against cancer cells than either anomer alone” (Bioorg Med Chem Lett, 2012)
